Assay results: US8071368B2, “Methods for promoting growth and survival of insulin-secreting cells” (Alizé Pharma SAS, priority 2001, dated 2011)
Non-standard residues stand in square brackets, D forms with d. Residues, ends and D or L forms follow the SMILES beside them. No end group written: not given here. *: point of attachment. dTrp(2-Me) = Cc1[nH]c2ccccc2c1C[C@@H](N)C(=O)O; Octanoyl = CCCCCCCC(=O)*

Tests used:
HIT-T15 cells [1] = test: HIT-T15 cell proliferation, BrdU incorporation; format: cell-based; conditions: for effect on unacylated ghrelin-induced cell proliferation: preincubation, unacylated ghrelin 100 nM, NF449 10 μM, PTX 50 ng/ml
Procedure: This effect was similar to that observed in cells cultured in normal conditions, i.e. in the presence of serum (15% HS, 2.5% FBS).
To investigate the signaling pathways involved in ghrelin mitogenic effect, the cells were preincubated (30 min) with NF449, a selective Gαs protein-coupled receptor antagonist.
In FIG. 8A to 8E, HIT-T15 cells were cultured in serum-free medium (Control) for 24 h, UAG alone or with NF449 and pertussis toxin (PTX) were added to the incubation medium for further 24 h. In FIG. 8A, cell proliferation was measured by BrdU uptake in cells cultured in the presence or absence of serum, UAG at the concentrations indicated. […] Data are expressed as the percentage relative to control and are the means±SEM of eight replicates within a single representative experiment that was repeated at least 3 times (*P<0.05,**P<0.01).
(§1) In FIG. 9B, apoptosis is evaluated by counting condensed/fragmented Hoechst-stained nuclei (SF, serum-free medium). Values are expressed as percent of apoptotic cells and are the mean±SEM of duplicate determinations (500 cells each) of three independent experiments (*P<0.05; **P<0.01). In FIG. 9C, cell proliferation is assessed by BrdU uptake (ELISA). The results are expressed as percent of control (serum starved cells) and are the mean±SEM of three independent experiments (*P<0.05,**P<0.01). FIG. 9D illustrates ghrelin secretion in HIT-T15 conditioned medium following exposure to either serum, SF±cytokines. The results are the mean±SEM of three independent experiments, each performed in quadruplicate (*P<0.05). In FIG. 9E, apoptosis is determined by Hoechst 33258 of cells cultured for 48 h in the presence of serum or in SF medium alone with addition of an anti-ghrelin antibody (α-ghrelin Ab), (*P<0.05,**P<0.01 vs 0 μg/ml α-ghrelin Ab in each condition).

[2] = preprandial GHS administration in normal human beings with GH receptor antagonist pegvisomant; format: in vivo; conditions: 1 μg/Kg i.v. preprandial
Excerpt: Because in this study GH-action was blocked by pegvisomant, these GHS-mediated metabolic changes on the “gastro-entero-hepatic axis” must be direct and non-pituitary mediated.

[3] = ghrelin and GH rhythms during three days fasting, GHRP-6 bolus, healthy volunteers; format: in vivo, human; conditions: 1 μg/kg on the 3rd day of fasting
Procedure: In order to understand the diurnal rhythms of ghrelin and GH secretion during fasting, a study was conducted on 10 healthy human volunteers with normal body mass index. […] Fasting rapidly induces a diurnal ghrelin rhythm that is followed by a similar GH rhythm. […] This phenomenon cannot be explained by changes in insulin, glucose or free fatty acid levels. Thus it appears that the metabolic effects of ghrelin are distinct from its effects on GH secretion.
By the use of the GH receptor antagonist pegvisomant, indirect evidence was provided that these changes in serum ghrelin levels are not regulated by the GH receptor. Finally, it was shown that administration of the synthetic GHS, GHRP-6, produced a decrease in peak ghrelin levels, but this effect was only observed after several hours, indicating the existence of a long-loop feedback system of GHS's on ghrelin secretion.

[4] = glucose and insulin after single intravenous human ghrelin in healthy young male volunteers; format: in vivo; conditions: 1.0 μg/kg i.v. at 0', vs placebo
HIT-T15 cells [5] = test: HIT-T15 apoptosis, Hoechst 33258 staining; format: cell-based
Excerpt: Apoptosis is the main form of pancreatic β-cell death in animal models of type 1 diabetes mellitus. […] Moreover, they partially lost their capacity to form islet-like structures (FIG. 9A, upper panel, and 9B). Cytokines further increased apoptosis (˜27%), cells appearing smaller and unable to form islets (FIG. 9A, lower panel, and FIG. 9B). […] Accordingly, others have reported that ghrelin exerts proliferative and antiapoptotic effects at high concentrations […] in different cell types.
as §1

HIT-T15 cells [6] = test: HIT-T15 cell survival, MTT assay; format: cell-based; conditions: serum-free conditions and in the presence of cytokines
caspase-3 = caspase-3 activation in HIT-T15 cells; format: cell-based; conditions: serum-starved and cytokine-treated cells, data not shown
[7] = 16 h intravenous infusion of unacylated ghrelin in healthy males; format: in vivo, human; conditions: 1.0 μg/Kg/h iv 16 h
HIT-T15 cell membranes = test: 125I-[Tyr4]-unacylated ghrelin binding to HIT-T15 cell membranes; conditions: unlabeled competitor
Excerpt: Binding is expressed as percentage of control (specific binding in the absence of unlabeled competitor);

cAMP = test: intracellular cAMP concentration in HIT-T15 cells; format: cell-based; conditions: 100 nM, with IBMX
Procedure: Initially, the unacylated ghrelin-induced cAMP intracellular variation was examined.
cAMP induction by ghrelin was then evaluated at 15 min in either serum-free medium alone or with addition of IFN-γ/TNF-α in the presence of IBMX.
The results are the mean±SEM of three independent experiments performed in triplicate (*P<0.05 vs basal time point). FIG. 10B illustrates the cAMP levels in cells incubated in the presence of serum or in serum-free (SF) medium±unacylated ghrlein (100 nM each) alone or with IFN-γ/TNF-α combination (100 ng/ml and 200 ng/ml respectively). Data are the mean±SEM of at least three independent experiments performed in triplicate (*P<0.05).

[8] = co-administration of unacylated ghrelin and ghrelin in normal human volunteers; format: in vivo; conditions: 1 μg/kg iv at 0 min with ghrelin 1 μg/kg iv
Excerpt: Thus it appears that unacylated ghrelin is acting as a functional antagonist of the peripheral actions of ghrelin.

Q: For `O=C(Nc1cc(C(=O)Nc2ccc(S(=O)(=O)O)cc2S(=O)(=O)O)cc(C(=O)Nc2ccc(S(=O)(=O)O)cc2S(=O)(=O)O)c1)Nc1cc(C(=O)Nc2ccc(S(=O)(=O)O)cc2S(=O)(=O)O)cc(C(=O)Nc2ccc(S(=O)(=O)O)cc2S(=O)(=O)O)c1` [NF449, reference compound], which “effect on unacylated ghrelin-induced cell proliferation” value (HIT-T15 cells [1]) is on record?
A: The value was “complete blockade”.

Q: With pertussis toxin [reference compound] as the compound, how does the “effect on unacylated ghrelin-induced cell proliferation” value (HIT-T15 cells [1]) read?
A: Its value is “had no effect”.

Q: Which serum insulin concentrations ([2]; in the presence of pegvisomant) does the source give for GHRP-6 here?
A: Its serum insulin concentrations is “impressive increase in serum insulin concentrations”.

Q: And the “postprandial serum glucose levels” value ([2]; only in the presence of pegvisomant)?
A: The value was “induces a postprandial increase in serum glucose levels”.

Q: And the peak ghrelin levels [3]?
A: Its peak ghrelin levels is “attenuated peak ghrelin levels in the afternoon”.

Q: Which results are given for “ghrelin: gastric hormone of 28 amino acids with an n-octanoyl ester at its third serine residue (GSS(Octanoyl)FLSPEHQRVQQRKESKKPPAKLQPR)”?
A: Δ glucose [4]: elevation in glucose; Δ insulin [4]: acute decrease in insulin

Q: What does the source list for “NH2Gly-Ser-Ser-Phe-Leu-Ser-Pro-Glu-His-Gln-Arg-Val-Gln-Gln-Arg-Lys-Glu-Ser-Lys-Lys-Pro-Pro-Ala-Lys-Leu-Gln-Pro-Arg (H-GSSFLSPEHQRVQQRKESKKPPAKLQPR) [unacylated ghrelin]”?
A: serum-starvation-induced apoptosis (HIT-T15 cells [5]; 100 nm, serum-deprived medium): almost completely prevented; apoptosis triggered by the IFN-γ/TNF-α combination, percent of apoptotic cells (HIT-T15 cells [5]; 100 nm, cytokines alone ~27%): ~12%; lowest significantly active concentration, antiapoptotic effect (HIT-T15 cells [5]; data not shown): 1 nm; cell viability (MTT) (HIT-T15 cells [6]): significantly increased cell viability; caspase-3 activation (caspase-3): significantly reduced; FFA profile ([7]; post-prandially and at fasting): reduced both post-prandially (p<0.01) and at fasting; glucagon profile ([7]; vs saline): significantly modified the profile of all parameters, except glucagon; total insulin AUC ([7]; vs saline): did not modify; GH AUC ([7]; vs saline, p<0.01): lower; cortisol AUC ([7]; vs saline, p<0.01): lower; free fatty acid (FFA) AUC ([7]; vs saline, p<0.01): decreased; glucose AUC ([7]; vs saline, p<0.01): decreased; early insulin response to dinner and breakfast ([7]; dinner p<0.01, breakfast p<0.05): enhanced; competition with 125I-labeled [Tyr4]-unacylated ghrelin for binding sites (HIT-T15 cell membranes): competed; cAMP levels over time (cAMP; serum starved cells, 5 to 60 min): transient increase within 5 min; cAMP at 15 min (cAMP; serum-free medium alone or with IFN-γ/TNF-α): significantly up-regulated cAMP; cell proliferation in the presence of IFN-γ/TNF-α (HIT-T15 cells [1]; 100 nM, cytokines 100 ng/ml and 200 ng/ml, 24 h): dramatically restored cell proliferation; cell proliferation (BrdU incorporation) (HIT-T15 cells [1]; serum-free medium, 1 pm to 1 μm, 24 h): significantly and dose-dependently induced cell proliferation; ghrelin-induced decrease in insulin levels [8]: totally prevented; ghrelin-induced increase in glucose [8]: totally prevented

Q: Which “competition with 125I-labeled [Tyr4]-unacylated ghrelin for binding sites” value (HIT-T15 cell membranes) does the source give for `Cc1[nH]c2ccccc2c1C[C@@H](NC(=O)[C@@H](N)Cc1cnc[nH]1)C(=O)N[C@@H](C)C(=O)N[C@@H](Cc1c[nH]c2ccccc12)C(=O)N[C@H](Cc1ccccc1)C(=O)N[C@@H](CCCCN)C(N)=O` [hexarelin] (H-H[dTrp(2-Me)]AW[dF]K-NH2) here?
A: The value was “competed”.
